# “Also recorded” adds a separate entry of the source.
# Experiments:
# [1] = system: cancer stem cell population (ZsGreen+) established from pancreatic cancer cell line Panc-1; assay: Screening of miRNAs: cell count (cell viability) of the cancer stem cell population after transfection; assay type: cell-based, human; details: miRNA 10 pmol/well, lipofectamin 2000, cells counted 48 and 72 hours later, FIG. 4
# From the text: A cancer stem cell line was established by transducing a pancreatic cancer cell line (Panc-1) with an ODC (Ornithine Decarboxylase)-Degron system capable of visualizing low metabolism that is a property of cancer stem cells using a retrovirus vector (FIG. 1a). The base sequence coding the used ODC-Degron is as set forth in SEQ ID NO: 10. Usually, cancer stem cells are so 26s proteasome hypometabolic that they cannot degrade the introduced fluorescently labeled Ornithine Decarboxylase Degron, and thus the fluorescent protein sufficiently accumulates to provide visualization.
# However, even when the ODC-degron system was introduced into the pancreatic cancer cell line Panc-1, only about 0.06% cells emitting fluorescence (green) were obtained in total. With such a small number of cancer stem cells, a series of experiments including drug screening cannot be performed. Accordingly, further enrichment of cancer stem cells provided a cancer stem cell population in which cells having observed fluorescent coloring (i.e., cancer stem cells) accounted for about 81.18% in total (FIG. 1b). The obtained cancer stem cell population was designated as ZsGreen+.
# A cell suspension prepared by suspending the cancer stem cell population (ZsGreen+) in a medium (DMEM medium containing 10% by volume FBS) was seeded in each well of a 24-well plate at a density of 5000 to 10000 cells/well, followed by culture at 37° C. overnight. Thereafter, according to the lipofectamin 2000 protocol, each miRNA was transfected at 10 pmol/well, and 48 hours and 72 hours later, the cells were counted. In addition, tests were also conducted under the same condition on a case where the miRNA was not introduced (untreated group, control), a case where has-miR-34a (SEQ ID NO: 8) was used (positive control) in place of the selected miRNA, and a case where a control miRNA (SEQ ID NO: 9) was used (NC1, negative control) in place of the selected miRNA. In addition, for comparison, the non-cancer stem cell population (ZsGreen−) was used in place of the cancer stem cell population (ZsGreen+) to conduct tests under the same condition.
# The ratio of the number of cells under each condition to the number of control cells into which the miRNA was not introduced (cell viability, %) was determined.
# [2] = system: human large bowel cancer cells (DLD1 line); assay: Antitumor effect on human large bowel cancer cells, cell count after transfection; assay type: cell-based; details: 10 pmol/well, FIG. 11; for antitumor effect: 72 hours, positive control hsa-miR-34a; for proliferation inhibitory effect on large bowel cancer cells: cells counted 72 hours after transfection
# Method: (§1) A cell suspension prepared by suspending human pancreatic cancer cells (Bxpc3 line) in D-MEM medium (containing 10% by volume FBS) was seeded in each well of a 24-well plate at 3×10^3 cells/well, followed by culture at 37° C. overnight. Thereafter, according to the lipofectamin 2000 protocol, each miRNA was transfected at 10 pmol/well, and 48 hours later, the cells were counted. In addition, tests were also conducted under the same condition on a case where the miRNA was not introduced (untreated group), a case where hsa-miR-34a (SEQ ID NO: 8) was used (positive control) in place of the miRNA, and a case where a control miRNA (SEQ ID NO: 9) was used (control miRNA, negative control) in place of the selected miRNA.
# (§2) As to hsa-miR-136-5p, hsa-miR-3065-3p, hsa-miR-4727-5p, hsa-miR-378g, hsa-miR-181a-5p, hsa-miR-362-5p and hsa-miR-608, evaluation was performed of the antitumor effect on human large bowel cancer cells. The specific test method is the same as that for Test Example 4 except that human large bowel cancer cells (DLD1 line) were used as cancer cells, and that the cells were counted 72 hours after transfection.
# [3] = system: human pancreatic cancer cells (PSN-1 line); assay: Antitumor effect on human pancreatic cancer cells (2), cell count after transfection; assay type: cell-based; details: 10 pmol/well, 48 hours, FIG. 9
# Method: as §1
# As to hsa-miR-136-5p, hsa-miR-3065-3p and hsa-miR-181a-5p, evaluation was performed of the antitumor effect on human pancreatic cancer cells. The specific test method is the same as that for Test Example 4 except that a PSN-1 line was used as human pancreatic cancer cells.
# [4] = system: human esophageal cancer cells (TE11 line); assay: Antitumor effect on human esophageal cancer cells, cell count after transfection; assay type: cell-based; details: 10 pmol/well, FIG. 12; for antitumor effect: 72 hours, positive control hsa-miR-34a; for proliferation inhibitory effect on esophageal cancer cells: cells counted 72 hours after transfection
# Method: as §1
# as §2, with “hsa-miR-378g and” for “hsa-miR-378g,”, “hsa-miR-181a-5p,” for “hsa-miR-181a-5p, hsa-miR-362-5p and hsa-miR-608,”, “esophageal” for “large bowel”, “(TE11” for “(DLD1”
# [5] = system: human pancreatic cancer cells (Bxpc3 line); assay: Antitumor effect on human pancreatic cancer cells (1), cell count after transfection; assay type: cell-based; details: 10 pmol/well, FIG. 8; for antitumor effect: 48 hours, positive control hsa-miR-34a; for proliferation inhibitory effect on pancreatic cancer cells: cells counted 48 hours later
# Method: as §1
# [6] = system: human gastric cancer cells (AGS line); assay: Antitumor effect on human gastric cancer cells, cell count after transfection; assay type: cell-based; details: 10 pmol/well, 48 hours, FIG. 10; for antitumor effect: positive control hsa-miR-34a
# Method: as §1
# As to hsa-miR-136-5p, hsa-miR-3065-3p and hsa-miR-181a-5p, evaluation was performed of the antitumor effect on human gastric cancer cells. The specific test method is the same as that for Test Example 4 except that human gastric cancer cells (AGS line) were used as cancer cells.
Substance,proliferation inhibitory effect on cancer stem cells (cell viability) [1],antitumor effect [2],proliferation inhibitory effect on large bowel cancer cells [2],antitumor effect [3],proliferation inhibitory effect on pancreatic cancer cells [3],antitumor effect [4],proliferation inhibitory effect on esophageal cancer cells [4],antitumor effect [5],proliferation inhibitory effect on pancreatic cancer cells [5],proliferation inhibitory effect on gastric cancer cells [6],antitumor effect [6]
"hsa-miR-136-5p: human-derived miR-136-5p; base sequence set forth in SEQ ID NO: 1 as mature miRNA (ACUCCAUUUGUUUUGAUGAUGGA; listed as RNA, chemistry not given here; listed as Homo sapiens)",effectively suppress proliferation of cancer stem cells; also recorded: prominent proliferation inhibitory effect,much better antitumor effect than that of hsa-miR-34a; also recorded: particularly remarkable antitumor effect,strong proliferation inhibitory effect,particularly remarkable antitumor effect,strong proliferation inhibitory effect,much better antitumor effect than that of hsa-miR-34a,strong proliferation inhibitory effect,much better antitumor effect than that of hsa-miR-34a; also recorded: particularly remarkable antitumor effect,strong proliferation inhibitory effect,strong proliferation inhibitory effect,much better antitumor effect than that of hsa-miR-34a; also recorded: particularly remarkable antitumor effect
"hsa-miR-3065-3p: human-derived miR-3065-3p; base sequence set forth in SEQ ID NO: 2 as mature miRNA (UCAGCACCAGGAUAUUGUUGGAG; listed as RNA, chemistry not given here; listed as Homo sapiens)",effectively suppress proliferation of cancer stem cells; also recorded: prominent proliferation inhibitory effect,much better antitumor effect than that of hsa-miR-34a; also recorded: particularly remarkable antitumor effect,strong proliferation inhibitory effect,,strong proliferation inhibitory effect,much better antitumor effect than that of hsa-miR-34a; also recorded: particularly remarkable antitumor effect,strong proliferation inhibitory effect,much better antitumor effect than that of hsa-miR-34a,strong proliferation inhibitory effect,strong proliferation inhibitory effect,much better antitumor effect than that of hsa-miR-34a
